Results from patent publication US9290789B2, “Method for measuring cells, and reagent for cell measurement” (HITACHI HIGH-TECHNOLOGIES CORPORATION, priority 2011, dated 2016).

Columns and labels:
[1] = system: ATP•luciferase•luciferin reaction; assay: Effect of methanol on ATP luminescent reaction; format: biochemical; conditions: 1000 amol ATP/50 μL; for Relative luminescence: methanol-free ATP solution = 100
Description: 1 mL of an ATP solution (2×10^5 amol ATP/mL, Kikkoman Biochemifa Company Lucifer ATP standard reagent set) was mixed with 10 μl to 5 mL of 100% methanol (Wako Pure Chemical Industries, Ltd.). Water (Invitrogen) was further added to each solution, and thus ATP/methanol solutions (10 mL each) with final methanol concentrations ranging from 0.1 to 50 (v/v) % were prepared (ATP concentration: 2×10^4 amol ATP/mL). Subsequently, 50 μL of the ATP/methanol solution and 50 μL of a luminescent reagent (Kikkoman Biochemifa Company, included with a Lucifer HS set) were mixed to cause a luminescent reaction to take place. The resulting luminescence levels were measured by photocounting using a photomultiplier.
For comparison, 1 mL of a methanol-free ATP solution (2×10^4 amol ATP/mL) was prepared. Subsequently, 50 μL of an ATP solution and 50 μL of the luminescent reagent were mixed to cause a luminescent reaction to take place, and then the luminescence level was measured.

Bacillus subtilis = assay: Cell viability (colony count) after methanol exposure; format: cell-based; conditions: 80 (v/v) % methanol, 1 minute; colony count at 0% methanol = 100%
Description: (§1) 10 μL of a cell suspension and 90 μL of methanol, the concentration of which had been adjusted, were mixed, thereby preparing 100 μL of a cell/methanol suspension. The final methanol concentrations ranged from 0 to 80 (v/v) %. As microorganisms (cells), Bacillus subtilis (bacterium, spores, ATCC 6633), Staphylococcus aureus (bacterium, aerobic, ATCC 6538), and Candida albicans (fungus, yeast, ATCC 10231) were used. Each cell suspension was mixed with methanol and then the mixture was left to stand for 1 minute. In the case of bacteria, the mixture was applied and spread over R2A medium (Nissui Pharmaceutical Co., Ltd.) and then cultured at 25° C. for 7 days. In the case of fungi, the mixture was applied and spread over PDA medium (Nissui Pharmaceutical Co., Ltd.) and then cultured at 25° C. for 5 days. After culture, the colony count was then measured according to each methanol concentration. The colony count in the case of 0% methanol was designated as 100% cell viability. Cell viability according to each methanol concentration was examined.

Candida albicans = assay: as above; format: cell-based; conditions: maximum of 30 (v/v) % methanol, 1 minute; colony count at 0% methanol = 100%
Description: as §1

Staphylococcus aureus = assay: as above; format: cell-based; conditions: maximum of 30 (v/v) % methanol, 1 minute; colony count at 0% methanol = 100%
Description: as §1

ATPase = assay: Residual ATPase activity according to methanol concentrations; format: biochemical; conditions: 37° C. for 30 minutes
Description: 10 μL of an ATPase-containing ATP elimination solution (Kikkoman Biochemifa Company, ATP elimination reagent included with a Lucifer HS set) was mixed with 80 μL of methanol, the concentration of which had been adjusted. An ATP solution (2×10^6 amol/10 μL) was added to the solution and then it was left to stand at 37° C. for 30 minutes. In addition, the final methanol concentrations were adjusted to 0.1 to 80 (v/v) %.
To measure the remaining ATP level after the addition of the above mixture to a luminescent reagent, the mixture was diluted in water to a methanol concentration of 0.1 (v/v) % or less, assuring that the methanol would not affect the ATP luminescent reaction (Reference Example 2, Table 2). Subsequently, 50 μL of the diluted solution (1×10^3 amol ATP/50 μL) was added to 50 μL of the luminescent reagent, and then the luminescence level was measured. Furthermore, an ATP solution (1×10^3 amol/50 μL) to which no ATPase had been added was prepared. The luminescence level according to the ATP solution was also measured. The luminescence level of the ATPase-free ATP solution was considered almost the same as that of an ATP solution to which ATP had been added after the loss of ATPase activity.

[2] = system: Methylobacterium extorquens; assay: Intracellular ATP level by ATP luminescence method; format: cell-based
Description: An M. extorquens cell suspension was prepared according to the following procedures. M. extorquens was cultured with agitation in 5 mL of SCD liquid medium (Nissui Pharmaceutical Co., Ltd.) for 72 hours at 25° C. The culture solution (medium) was dispensed into tubes, and then centrifuged for 10 minutes at 10000 rpm, so as to collect cells onto the tube bottoms. Supernatant was removed, and then water was added instead, to suspend cells. Centrifugation was performed again for 10 minutes at 10000 rpm, so as to collect cells onto the tube bottoms. This step was repeated 3 times, medium components were removed, and thus a cell suspension was prepared. Subsequently, the cells were cultured with agitation in water for injection for 3 days at 37° C., so that a cell suspension for ATP luminescence measurement was prepared. […]
Reagents included in a Lucifer HS set (Kikkoman Biochemifa Company) were used as reagents for ATP luminescence measurement. In addition, the Lucifer HS set comprises an ATP elimination enzyme, an ATP extraction reagent, and a luminescent reagent included therewith. […]
100 μL of an ATP extraction solution was added to 100 μL of the mixture after heating. 50 μL of each sample after ATP extraction was added to 50 μL of the luminescent reagent. The thus generated luminescence was measured.
10 μL each of glucose (Wako Pure Chemical Industries, Ltd.), alanine (Wako Pure Chemical Industries, Ltd.), ATPase, 10% methanol, and a phosphate buffer (pH 7.4) (Invitrogen) were added to 50 μL of the M. extorquens cell suspension, thereby preparing a total of 100 μL of a mixture. When glucose, alanine, and methanol were not added, the solution was adjusted to a total 100 μL volume with a phosphate buffer (Table 3, sample Nos. 1 to 5). The mixture was heated at 37° C. for 30 minutes. In the extracellular ATP removal•intracellular ATP increase step (for removing ATP outside of viable cells and increasing ATP within viable cells), 100 μL of an ATP extraction solution was added to 100 μL of the mixture (Table 3, sample Nos. 1 to 4). For comparison of the ATP extraction efficiency of methanol, in the ATP extraction step, 100 μL, of the mixture was mixed with 100 μL of a 1% methanol-containing ATP extraction solution (Table 3, sample No. 5). After ATP extraction, 50 μL of the sample was added to 50 μL of the luminescent reagent, and then the thus generated luminescence was measured. […]
10 μL each of glucose, alanine, ATPase, and if necessary, 10 (v/v) % methanol were added to 50 μL of the M. extorquens cell suspension. Finally, a phosphate buffer (pH 7.4) (Invitrogen) was added for adjustment to a total 100 μL volume. The final concentrations of glucose and alanine ranged from 0.1 mM to 100 mM, and the final concentrations of ATPase and methanol were 10 (v/v) % and 1 (v/v) %, respectively. Each mixture was heated at 37° C. for 30 minutes. 100 μL of an ATP extraction solution was added to 100 μL of the heated mixture, and then 50 μL of sample after ATP extraction was added to 50 μL of a luminescent reagent. The thus generated luminescence was measured.
10 μL each of glucose, alanine, ATPase, and methanol were added to 50 μL of the M. extorquens cell suspension. Finally, a phosphate buffer (pH 7.4) (Invitrogen) was added for adjustment to a total 100 μL volume. The final concentrations of glucose and alanine were each 0.1 mM, the final ATPase concentration was 10 (v/v) %, and the final methanol concentrations ranged from 0% to 80%. Each mixture was heated at 37° C. for 30 minutes. After heating, to remove methanol-containing mixtures, all mixtures were subjected to centrifugal filtration (1 min, 2000 rpm) using Ultrafree-MC, and then mixtures as filtrates were discarded. Subsequently, 200 μL of water was added onto the filter and filtrated to wash the filter. In addition, washing was repeated 5 times. […]

CO [Methanol, methanol]
Luminescence level ([1]; 0.1% Methanol): 12703 CPS
Relative luminescence ([1]; 0.1% Methanol): 110%
Luminescence level ([1]; 1% Methanol): 10200 CPS
Relative luminescence ([1]; 1% Methanol): 88%
Luminescence level ([1]; 10% Methanol): 3345 CPS
Relative luminescence ([1]; 10% Methanol): 29%
Luminescence level ([1]; 50% Methanol): 13 CPS
Luminescence level ([1]; 50% Methanol, listed as methanol): almost no fluorescence
Relative luminescence ([1]; 50% Methanol): 0%
Cell viability of B. subtilis (Bacillus subtilis): 100%
Cell viability of C. albicans (Candida albicans): ≥ 90%
Cell viability of S. aureus (Staphylococcus aureus): ≥ 90%
Residual ATPase activity (ATPase; methanol concentration 80 (v/v) %): 20%
Residual ATPase activity (ATPase; methanol concentrations 0 to 50 (v/v) %): retained the activity
Intracellular ATP level of M. extorquens ([2]; 1% methanol added to 0.1 mM alanine and 0.1 mM glucose (FIG. 4C)): 1.2 amol/CFU
Intracellular ATP level of M. extorquens, % of the maximum ([2]; methanol 0.1% to 20%, 0.1 mM glucose, 0.1 mM alanine, 10% ATPase, filtration): ≥ 70%
Intracellular ATP level of M. extorquens ([2]; methanol 0.1% to 20%, 0.1 mM glucose, 0.1 mM alanine, 10% ATPase, filtration (FIGS. 5A and B)): 1.1 amol/CFU
Intracellular ATP level of M. extorquens ([2]; methanol 0.5%, 0.1 mM glucose, 0.1 mM alanine, 10% ATPase, filtration (FIG. 5A)): 1.5 amol/CFU
Intracellular ATP level of M. extorquens ([2]; methanol 30% or more, 0.1 mM glucose, 0.1 mM alanine, 10% ATPase, filtration (FIG. 5B)): 0.15 amol/CFU
Decrease of intracellular ATP level of M. extorquens ([2]; methanol 30% or more, relative to the maximum at 0.5% methanol): 90%

C[C@H](N)C(=O)O [alanine]
Intracellular ATP level of M. extorquens ([2]; alanine 1 mM or less in the presence of 1 (v/v) % methanol and 100 mM glucose (FIG. 4A)): 0.9 amol/CFU

O=C[C@H](O)[C@@H](O)[C@H](O)[C@H](O)CO [glucose]
Intracellular ATP level of M. extorquens ([2]; glucose varied 0.1 mM to 100 mM in the presence of 1 (v/v) % methanol and 50 mM alanine (FIG. 4B)): about 0.5 amol/CFU
